Data on 35 compounds can be found in patent publication US10807970B2 (priority 2016, dated 2020).

pKi: −log10 of the molar value.

Chain of human σ1 receptor (Q99720 whole entry): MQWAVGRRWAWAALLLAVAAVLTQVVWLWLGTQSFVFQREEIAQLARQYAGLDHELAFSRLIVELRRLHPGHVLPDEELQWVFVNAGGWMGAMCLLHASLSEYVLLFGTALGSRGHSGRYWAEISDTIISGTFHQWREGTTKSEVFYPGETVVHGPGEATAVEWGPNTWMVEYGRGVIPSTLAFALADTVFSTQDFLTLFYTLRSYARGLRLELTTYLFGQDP

The first assay addresses human σ1 receptor (Homo sapiens, UniProt Q99720). Briefly: Human σ1 receptor radioligand assay ([3H](+)-pentazocine, transfected HEK-293 membranes). The assay is classed as binding. On the set-up: μ and σ1 dual binding: key to the marks not given beside the values. Conditions: one class symbol for both Ki-σ1 (human σ1 receptor, A1) and Ki-μ (human μ-opioid receptor, A2). The essentials: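 Membranes from HEK-293 cells transfected with human σ1 receptor (7 μg) incubated with 5 nM [3H](+)-pentazocine in 50 mM Tris-HCl pH 8, 120 min at 37° C. Non-specific binding defined with 10 μM haloperidol. Bound radioligand separated by filtration, washed with ice-cold 10 mM Tris-HCl pH 7.4, and counted by scintillation.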
On to `c1ccc(C2(N3CCN(Cc4ccccn4)CC3)CCOC3(CCCC3)C2)cc1` (centres unmarked) [Example 120, 1-(9-phenyl-6-oxaspiro[4.5]decan-9-yl)-4-(pyridin-2-ylmethyl)piperazine], for which the “μ and σ1 dual binding” value is reported as “++”.

Take `N#Cc1cccc(CN2CCN(C3(c4ccccc4)CCOC4(CCCC4)C3)CC2)c1` (centres unmarked) [Example 121, 3-((4-(9-phenyl-6-oxaspiro[4.5]decan-9-yl)piperazin-1-yl)methyl)benzonitrile]: the “μ and σ1 dual binding” value is “++”.

Take `CC(C)CN1CCN(C2(Cc3ccccc3)CCOC3(CCCC3)C2)CC1` (centres unmarked) [Example 123, 1-(9-benzyl-6-oxaspiro[4.5]decan-9-yl)-4-isobutylpiperazine]: the “μ and σ1 dual binding” value is reported as “++”.

For the compound `c1ccc(CN2CCC(C3(c4ccccn4)CCOCC3)CC2)cc1` [Example 124, 2-(4-(1-benzylpiperidin-4-yl)tetrahydro-2H-pyran-4-yl)pyridine], the “μ and σ1 dual binding” value is “++”.

As for `CC1(C)CC(C(O)c2ccccn2)(N2CCN(Cc3ccccc3)CC2)CCO1` (centres unmarked) [Example 129, (4-(4-benzylpiperazin-1-yl)-2,2-dimethyltetrahydro-2H-pyran-4-yl)(pyridin-2-yl)methanol], the “μ and σ1 dual binding” value is on record as “++”.

On to `OC(c1ccccn1)C1(C2CCN(Cc3ccccc3)CC2)CCOCC1` (centres unmarked) [Example 130, (4-(1-benzylpiperidin-4-yl)tetrahydro-2H-pyran-4-yl)(pyridin-2-yl)methanol], for which the “μ and σ1 dual binding” value is recorded as “++”.

`CC1(C)CC(C2CCN(Cc3ccccc3)CC2)(C(O)c2ccccn2)CCO1` (centres unmarked) [Example 131, (4-(1-benzylpiperidin-4-yl)-2,2-dimethyltetrahydro-2H-pyran-4-yl)(pyridin-2-yl)methanol]: the “μ and σ1 dual binding” value is “++”.

Turning to `CC(C)OCCN1CCN([C@@]2(C(=O)c3ccccn3)CCOC(C)(C)C2)CC1` [Example 134, (S)-(4-(4-(2-isopropoxyethyl)piperazin-1-yl)-2,2-dimethyltetrahydro-2H-pyran-4-yl)(pyridin-2-yl)methanone], the “μ and σ1 dual binding” value was “++”.

`CC(C)COCCN1CCN([C@@]2(C(=O)c3ccccn3)CCOC(C)(C)C2)CC1` [Example 136, (S)-(4-(4-(2-isobutoxyethyl)piperazin-1-yl)-2,2-dimethyltetrahydro-2H-pyran-4-yl)(pyridin-2-yl)methanone]: the “μ and σ1 dual binding” value was “++”.

As to `CN(Cc1ccccc1)[C@H]1CCN([C@]2(C(=O)c3ccccn3)CCOC(C)(C)C2)C1` [Example 141, ((R)-4-((S)-3-(benzyl(methyl)amino)pyrrolidin-1-yl)-2,2-dimethyltetrahydro-2H-pyran-4-yl)(pyridin-2-yl)methanone], the “μ and σ1 dual binding” value is “++”.

Take `CN(Cc1ccccc1)[C@@H]1CCN([C@@]2(C(=O)c3ccccn3)CCOC(C)(C)C2)C1` [Example 143]: the “μ and σ1 dual binding” value was “++”.

As for `CC(C)OCCN(C)[C@H]1CCN([C@]2(C(=O)c3ccccn3)CCOC(C)(C)C2)C1` [Example 146, ((R)-4-((S)-3-((2-isopropoxyethyl)(methyl)amino)pyrrolidin-1-yl)-2,2-dimethyltetrahydro-2H-pyran-4-yl)(pyridin-2-yl)methanone], the “μ and σ1 dual binding” value is “++”.

For the compound `CC(C)OCCN(C)[C@H]1CCN([C@@]2(C(=O)c3ccccn3)CCOC(C)(C)C2)C1` [Example 147, ((S)-4-((S)-3-((2-isopropoxyethyl)(methyl)amino)pyrrolidin-1-yl)-2,2-dimethyltetrahydro-2H-pyran-4-yl)(pyridin-2-yl)methanone], the “μ and σ1 dual binding” value is reported as “++”.

With `CC(C)CCN(C)[C@@H]1CCN([C@]2(C(=O)c3ccccn3)CCOC(C)(C)C2)C1` [Example 149, ((R)-4-((R)-3-(isopentyl(methyl)amino)pyrrolidin-1-yl)-2,2-dimethyltetrahydro-2H-pyran-4-yl)(pyridin-2-yl)methanone], the “μ and σ1 dual binding” value is recorded as “++”.

In the case of `C[C@H]1C[C@@](C(=O)c2ccccn2)(C2CCN(Cc3ccccc3)CC2)CCO1` [Example 152], the “μ and σ1 dual binding” value is given as “++”.

Still in this assay, the particulars now being: one class symbol for both Ki-σ1 (human σ1 receptor, A1) and Ki-μ (human μ-opioid receptor, A2); read-out: μ and σ1 dual binding.
On to `CC1(C)CC(C(=O)c2ccccn2)(N2CCN(CCC(F)(F)F)CC2)CCO1` (centres unmarked) [Example 127, (2,2-dimethyl-4-(4-(3,3,3-trifluoropropyl)piperazin-1-yl)tetrahydro-2H-pyran-4-yl)(pyridin-2-yl)methanone], for which the pKi was < 6.30.

With `CC(C)OCCN1CCN([C@]2(C(=O)c3ccccn3)CCOC(C)(C)C2)CC1` [Example 135, (R)-(4-(4-(2-isopropoxyethyl)piperazin-1-yl)-2,2-dimethyltetrahydro-2H-pyran-4-yl)(pyridin-2-yl)methanone], the pKi was > 6.30.

As for `CC(C)OCCN1CCN([C@]2(C(=O)c3ccccn3)CCOC(C)(C)C2)CC1` [Example 139, (R)-(4-(4-(2-isopropoxyethyl)piperazin-1-yl)-2,2-dimethyltetrahydro-2H-pyran-4-yl)(pyridin-2-yl)methanone], the pKi is < 6.30.

Consider `CC(C)OCCN(C)[C@@H]1CCN([C@]2(C(=O)c3ccccn3)CCOC(C)(C)C2)C1` [Example 144, ((R)-4-((R)-3-((2-isopropoxyethyl)(methyl)amino)pyrrolidin-1-yl)-2,2-dimethyltetrahydro-2H-pyran-4-yl)(pyridin-2-yl)methanone], for which the pKi is > 6.30.

In the case of `CC(C)OCCN(C)[C@@H]1CCN([C@@]2(C(=O)c3ccccn3)CCOC(C)(C)C2)C1` [Example 145, ((S)-4-((R)-3-((2-isopropoxyethyl)(methyl)amino)pyrrolidin-1-yl)-2,2-dimethyltetrahydro-2H-pyran-4-yl)(pyridin-2-yl)methanone], the pKi was < 6.30.

`C[C@@H]1C[C@](C(=O)c2ccccn2)(N2CCN(Cc3ccccc3)CC2)CCO1` [Example 154, ((2R,4R)-4-(4-benzylpiperazin-1-yl)-2-methyltetrahydro-2H-pyran-4-yl)(pyridin-2-yl)methanone]: the pKi was > 6.30.

The assay is the same for the next values; noted with them: μ and σ1 dual binding, one class symbol for both Ki-σ1 (human σ1 receptor, A1) and Ki-μ (human μ-opioid receptor, A2).
In the case of `c1ccc(CC2(N3CCN(Cc4cccnc4)CC3)CCOC3(CCCC3)C2)cc1` (centres unmarked) [Example 122, 1-(9-benzyl-6-oxaspiro[4.5]decan-9-yl)-4-(pyridin-3-ylmethyl)piperazine], the pKi is > 6.30.

For the compound `CC1(C)CC(c2ccccn2)(C2CCN(Cc3ccccc3)CC2)CCO1` (centres unmarked) [Example 125, 2-(4-(1-benzylpiperidin-4-yl)-2,2-dimethyltetrahydro-2H-pyran-4-yl)pyridine], the pKi was < 6.30.

Take `CC(C)CN1CCC(C2(c3ccccn3)CCOC(C)(C)C2)CC1` (centres unmarked) [Example 126, 2-(4-(1-isobutylpiperidin-4-yl)-2,2-dimethyltetrahydro-2H-pyran-4-yl)pyridine]: the pKi is < 6.30.

As for `CC1(C)CC(C(=O)c2ccccn2)(N2CCN(CCC3CC3)CC2)CCO1` (centres unmarked) [Example 128, (4-(4-(2-cyclopropylethyl)piperazin-1-yl)-2,2-dimethyltetrahydro-2H-pyran-4-yl)(pyridin-2-yl)methanone], the pKi is > 6.30.

`CC(C)CCN1CCN([C@@]2(C(=O)c3ccccn3)CCOC(C)(C)C2)CC1` [Example 132, (S)-(4-(4-isopentylpiperazin-1-yl)-2,2-dimethyltetrahydro-2H-pyran-4-yl)(pyridin-2-yl)methanone]: the pKi was > 6.30.

As for `CC(C)CCN1CCN([C@]2(C(=O)c3ccccn3)CCOC(C)(C)C2)CC1` [Example 133, (R)-(4-(4-isopentylpiperazin-1-yl)-2,2-dimethyltetrahydro-2H-pyran-4-yl)(pyridin-2-yl)methanone], the pKi is > 7.00.

Take `CC(C)COCCN1CCN([C@]2(C(=O)c3ccccn3)CCOC(C)(C)C2)CC1` [Example 137, (R)-(4-(4-(2-isobutoxyethyl)piperazin-1-yl)-2,2-dimethyltetrahydro-2H-pyran-4-yl)(pyridin-2-yl)methanone]: the pKi is > 6.30.

As to `CN(Cc1ccccc1)[C@H]1CCN(C2(C(=O)c3ccccn3)CCOC(C)(C)C2)C1` (stereo partly drawn) [Example 138, (4-((S)-3-(benzyl(methyl)amino)pyrrolidin-1-yl)-2,2-dimethyltetrahydro-2H-pyran-4-yl)(pyridin-2-yl)methanone], the pKi is < 6.30.

For the compound `CN(Cc1ccccc1)[C@H]1CCN([C@@]2(C(=O)c3ccccn3)CCOC(C)(C)C2)C1` [Example 140, ((S)-4-((S)-3-(benzyl(methyl)amino)pyrrolidin-1-yl)-2,2-dimethyltetrahydro-2H-pyran-4-yl)(pyridin-2-yl)methanone], the pKi was > 6.30.

As to `CN(Cc1ccccc1)[C@@H]1CCN([C@]2(C(=O)c3ccccn3)CCOC(C)(C)C2)C1` [Example 142], the pKi was > 7.00.

As to `CC(C)CCN(C)[C@@H]1CCN([C@@]2(C(=O)c3ccccn3)CCOC(C)(C)C2)C1` [Example 148, ((S)-4-((R)-3-(isopentyl(methyl)amino)pyrrolidin-1-yl)-2,2-dimethyltetrahydro-2H-pyran-4-yl)(pyridin-2-yl)methanone], the pKi was > 6.30.

Turning to `CC(C)CCN(C)[C@H]1CCN([C@]2(C(=O)c3ccccn3)CCOC(C)(C)C2)C1` [Example 150, ((R)-4-((S)-3-(isopentyl(methyl)amino)pyrrolidin-1-yl)-2,2-dimethyltetrahydro-2H-pyran-4-yl)(pyridin-2-yl)methanone], the pKi was > 6.30.

Take `CC(C)CCN(C)[C@H]1CCN([C@@]2(C(=O)c3ccccn3)CCOC(C)(C)C2)C1` [Example 151, ((S)-4-((S)-3-(isopentyl(methyl)amino)pyrrolidin-1-yl)-2,2-dimethyltetrahydro-2H-pyran-4-yl)(pyridin-2-yl)methanone]: the pKi was > 6.30.

With `C[C@H]1C[C@](C(=O)c2ccccn2)(C2CCN(Cc3ccccc3)CC2)CCO1` [Example 153], the pKi was > 6.30.
